According to patent publication US20120225909A1, “INDAZOLE ANALOG” (priority 2009, published 2012):
Where two headings read alike, the source gives them in different places.

Key:
[1] = target: T1, human β3-adrenergic receptor (Homo sapiens, UniProt P13945); assay: Test Case 1-B: human β3-adrenergic receptor agonist activity (cAMP-Screen, 96-well); assay type: cell-based
T1 construct: A full-length human β3 gene is obtained from a human genomic library (made by Clontech) using this as the probe; expressed in transfected cells; host or cells: CHO (Chinese hamster ovary) cells, pcDNA3
T1 sequence (P13945 whole entry): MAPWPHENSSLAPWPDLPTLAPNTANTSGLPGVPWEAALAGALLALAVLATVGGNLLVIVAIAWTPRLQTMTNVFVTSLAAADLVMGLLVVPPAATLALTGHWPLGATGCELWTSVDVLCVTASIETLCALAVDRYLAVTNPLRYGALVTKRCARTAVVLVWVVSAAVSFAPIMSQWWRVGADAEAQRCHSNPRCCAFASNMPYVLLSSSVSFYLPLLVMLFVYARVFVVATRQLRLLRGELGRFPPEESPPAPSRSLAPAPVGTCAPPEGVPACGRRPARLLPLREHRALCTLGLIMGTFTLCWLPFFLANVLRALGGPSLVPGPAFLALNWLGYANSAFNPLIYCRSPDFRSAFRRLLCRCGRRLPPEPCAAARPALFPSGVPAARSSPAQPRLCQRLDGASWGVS
Method: Measurement of Human β3-Adrenergic Receptor Agonist Activity
The human β3-adrenergic receptor agonist activity is measured using CHO (Chinese hamster ovary) cells transfected by a human β3 gene inserted in pcDNA3 (Invitrogen). […] A full-length human β3 gene is obtained from a human genomic library (made by Clontech) using this as the probe. These cells are cultured in Ham's F-12 medium containing 10% fetal calf serum and 400 μg/mL genectin (Invitrogen). These cells are sown in 96-well plates to make 2×10^4 cells/well. After culturing for approximately 20 hours, they are allowed to stand for 15 minutes in 80 μL of serum-free Ham's F-12 medium. After first dissolving the test compound by DMSO, it is serially diluted by Ham's F-12 containing 100 mmol/L HEPES and 1 mmol/L isobutylmethylxanthine, and 20 μL is added to the cells. After culturing for 30 minutes, the medium is removed, and 0.1 mL of the assay/lysis buffer contained in the cAMP-Screen kit (made by Applied Bioscience) is added and incubated for 30 minutes at 37° C. The cAMP in this cell lysate is assayed by the above cAMP-Screen kit.

[2] = target: T2, human α1A-adrenergic receptor (Homo sapiens, UniProt P35348); assay: Test Case 4-A: human α1A-adrenergic receptor agonist activity (HEK293, Ca flux, Fura-2); assay type: cell-based; design: expressed in transfected cells; host or cells: HEK293 cells, pcDNA3.1
T2 sequence (P35348 1-466): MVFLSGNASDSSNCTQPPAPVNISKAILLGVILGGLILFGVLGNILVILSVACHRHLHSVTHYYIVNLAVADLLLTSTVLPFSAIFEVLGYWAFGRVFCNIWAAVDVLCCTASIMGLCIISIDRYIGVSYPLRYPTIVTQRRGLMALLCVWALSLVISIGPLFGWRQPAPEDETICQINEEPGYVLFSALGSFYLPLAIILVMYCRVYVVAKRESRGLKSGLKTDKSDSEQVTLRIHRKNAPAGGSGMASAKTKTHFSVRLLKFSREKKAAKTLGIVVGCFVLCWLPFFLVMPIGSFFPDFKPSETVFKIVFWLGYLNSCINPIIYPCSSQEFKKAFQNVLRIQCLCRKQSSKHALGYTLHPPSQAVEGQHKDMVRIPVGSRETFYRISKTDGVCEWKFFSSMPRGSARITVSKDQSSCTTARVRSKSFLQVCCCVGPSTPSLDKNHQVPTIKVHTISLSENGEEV
Method: Measurement of Human α1A-Adrenergic Receptor Agonist Activity
The human α1A-adrenergic receptor agonist activity is measured using HEK293 cells transfected by a human α1A gene inserted in pcDNA3.1 (Invitrogen). […] After loading for 30 minutes in a CO2 incubator, the excess Fura-2AM is removed by washing twice with assay buffer. After preparing the centrifuged cells to make 5×10^6 cells/mL by assay buffer, 80 μL/well is dispensed into 96-well UV plates (made by Corning) to make cell plates. Sample plates with the test compound diluted 10-fold by assay buffer from 10^−5 to 10^−12 M and cell plates are set in an FDSS4000 (made by Hamamatsu Photonics). After preincubating for 180 seconds, measurement of fluorescence intensity (excitation wavelength 340 nm, 380 nm, measurement wavelength 500 nm) is begun at 2-second intervals. After approximately 30 seconds of measurement, 20 μL of test sample from a sample plate is added to the cell plate, and measurement is continued for another 270 seconds. The Ca flux caused by the test compound is calculated taking the difference in the maximum value of the fluorescence intensity ratio at 340 nm and 380 nm after adding the test compound and the fluorescence intensity ratio before adding the test compound as the peak height.

[3] = 0.5 h; read-out: β3 receptor I.A.
[4] = HEK293; read-out: α1A receptor I.A.
[5] = Test Case 4-A; HEK293 cells, Ca flux; Table 4
[6] = Test Case 1-B; maximum response of isoproterenol = 100%
[7] = Test Case 4-A; maximum response of norepinephrine = 100%; Table 4

| Compound | Emax [1, 3] | EC50 ([1]; Test Case 1-B; CHO cells, cAMP) | Emax [2, 4] | EC50 [2, 5] | β3 receptor I.A. [1, 6] | α1A receptor I.A. [2, 7] | Emax ([1]; 0.5 h, read-out: β3 receptor I.A.) | Emax ([2]; HEK293, read-out: α1A receptor I.A.) |
| --- | --- | --- | --- | --- | --- | --- | --- | --- |
| O=S(=O)(Nc1cccc([C@@H](O)CNCCOc2ccc3c(Cl)n[nH]c3c2)c1)C1CCC1 [ex179, (R)-N-(3-(2-(2-(3-chloroindazol-6-yloxy)ethylamino)-1-hydroxyethyl)phenyl)-cyclobutanesul-fonamide] | 93% | 17 nM | 26% | 436 nM | – | – | – | – |
| Cc1n[nH]c2cc(OCCNC[C@H](O)c3cccc(NS(=O)(=O)CC(F)(F)F)c3)ccc12 [ex48, (R)-2,2,2-trifluoro-N-(3-(1-hydroxy-2-(2-(3-methylindazol-6-yloxy)ethylamino)ethyl)phenyl) ? sulfonamide] | 48% | 27 nM | 29% | – | – | – | – | – |
| CCc1n[nH]c2cc(OCCNC[C@H](O)c3cccc(NS(=O)(=O)c4cccnc4)c3)ccc12 [ex121, (R)-N-(3-(2-(2-(3-ethylindazol-6-yloxy)ethylamino)-1-hydroxyethyl)phenyl) pyridine-3-sulfonamide] | 53% | 2.8 nM | 0% | – | – | – | – | – |
| (R)-N-(3-(1-hydroxy- 2-(2-(3-iso- propylindazol-6-yloxy) ethylamino)ethyl) phenyl)cyclopro- panesulfonamide [ex228] | – | 14 nM | – | – | 47% | 0% | – | – |
| CCc1n[nH]c2cc(OCCNC[C@H](O)c3cccc(NS(=O)(=O)C4CCC4)c3)ccc12 [ex150] | 85% | 5.4 nM | 61% | 1280 nM | – | – | – | – |
| CCc1n[nH]c2cc(OCCNC[C@H](O)c3cccc(NS(=O)(=O)c4cccc(Cl)c4)c3)ccc12 [ex119, (R)-3-chloro-N-(3-(2-(2-(3-ethylindazol-6-yloxy)-ethylamino)-1-hydroxyethyl)-phenyl) benzenesulfonamide] | 47% | 23 nM | 0% | – | – | – | – | – |
| Cc1n[nH]c2cc(OCCNC[C@H](O)c3cccc(NS(=O)(=O)c4ccc(Cl)cc4)c3)ccc12 [ex52, (R)-4-chloro-N-(3-(1-hydroxy-2-(2-(3-methylindazol-6-yloxy)ethylamino)ethyl)phenyl) benzenesulfonamide] | 62% | 248 nM | 0% | – | – | – | – | – |
| COc1n[nH]c2cc(OCCNC[C@H](O)c3cccc(NS(=O)(=O)C4CCC4)c3)ccc12 [ex38, (R)-N-(3-(1-hydroxy-2-(2-(3-methoxyindazol-6-yloxy)-ethylamino)ethyl)phenyl)cyclo-butanesulfonamide] | 89% | 31 nM | 75% | 378 nM | – | – | – | – |
| O=S(=O)(Nc1cccc([C@@H](O)CNCCOc2ccc3c(C4CCC4)n[nH]c3c2)c1)C1CCC1 [ex233, (R)-N-(3-(2-(2-(3- ?] | 73% | 10 nM | 9% | – | – | – | – | – |
| Cc1n[nH]c2cc(OCCNC[C@H](O)c3cccc(NS(=O)(=O)c4ccc(N)cc4)c3)ccc12 [ex54, (R)-4-amino-N-(3-(1-hydroxy-2-(2-(3-methylindazol-6-yloxy)ethylamino)ethyl)phenyl) benzenesulfonamide] | 48% | 125 nM | 0% | – | – | – | – | – |
| CCc1n[nH]c2cc(OCCNC[C@H](O)c3cccc(NS(=O)(=O)c4cccc(OC)c4)c3)ccc12 [ex120, (R)-N-(3-(2-(2-(3-ethylindazol-6-yloxy)ethylamino)-1-hydroxyethyl)phenyl)-3-methoxybenzene-sulfonamide] | 32% | 131 nM | 0% | – | – | – | – | – |
| Cn1cc(S(=O)(=O)Nc2cccc([C@@H](O)CNCCOc3ccc4c(C5CC5)n[nH]c4c3)c2)cn1 [ex225, (R)-N-(3-(2-(2-(3-cyclopropylindazol-6-yloxy)ethylamino)-1-hydroxyethyl)phenyl)-1-methyl-pyrazole-4-sul-fonamide] | 91% | 5.7 nM | 41% | 981 nM | – | – | – | – |
| O=S(=O)(Nc1cccc([C@@H](O)CNCCOc2ccc3c(OC(F)F)n[nH]c3c2)c1)c1ccccn1 [ex117, (R)-N-(3-(2-(2-(3-(difluoromethoxy)-indazol-6-yloxy)ethylamino)-1-hydroxyethyl)phenyl)pyridine-2-sulfonamide] | – | – | – | – | 54% | 0% | – | – |
| CCc1n[nH]c2cc(OCCNC[C@H](O)c3cccc(NS(=O)(=O)c4cccs4)c3)ccc12 [ex122, (R)-N-(3-(2-(2-(3-ethylindazol-6-yloxy)ethylamino)-1-hydroxyethyl)phenyl) thiophene-2-sulfonamide] | 59% | 0.91 nM | 0% | – | – | – | – | – |
| COc1cccc(S(=O)(=O)Nc2cccc([C@@H](O)CNCCOc3ccc4c(OC)n[nH]c4c3)c2)c1 [ex14, (R)-N-(3-(1-hydroxy-2-(2-(3-methoxyindazol-6-yloxy)ethylamino)ethyl)phenyl)-3-methoxy-b ? sulfonamide] | – | – | 0% | – | – | – | – | – |
| O=S(=O)(Nc1cccc([C@@H](O)CNCCOc2ccc3c(OC(F)F)n[nH]c3c2)c1)C1CCC1 [ex115, (R)-N-(3-(2-(2-(3-(difluoromethoxy)-indazol-6-yloxy)ethylamino)-1-hydroxyethyl)phenyl)-cyclobutanesul-fonamide] | 86% | 15 nM | 35% | 1100 nM | – | – | – | – |
| Cc1n[nH]c2cc(OCCNC[C@H](O)c3cccc(NS(=O)(=O)C4CCCC4)c3)ccc12 [ex237, (R)—N-(3-(1-hydroxy-2-(2-(3-methylindazol-6-yloxy)ethylamino)ethyl)phenyl)cyclopentanesulfonamide] | – | 293 nM | – | – | – | – | 58% | 0% |
| Cc1n[nH]c2cc(OCCNC[C@H](O)c3cccc(NS(=O)(=O)c4cn(C)cn4)c3)ccc12 [ex50, (R)-N-(3-(1-hydroxy-2-(2-(3-methylindazol-6-yloxy)ethylamino)ethyl)phenyl)-1-methylimidazole-4-sulfonamide] | 18% | – | 0% | – | – | – | – | – |
| O=S(=O)(Nc1cccc([C@@H](O)CNCCOc2ccc3c(C(F)(F)F)n[nH]c3c2)c1)C1CCC1 [ex210, (R)-N-(3-(1-hydroxy-2-(2-(3-(trifluoro-methyl)-indazol-6-yloxy)ethylamino)ethyl)phenyl)cyclo-clobutanesulfonamide] | 86% | 17 nM | 54% | 1700 nM | – | – | – | – |
| O=S(=O)(Nc1cccc([C@@H](O)CNCCOc2ccc3c(CO)n[nH]c3c2)c1)C1CCC1 [ex243, (R)—N-(3-(1-hydroxy-2-(2-(3-(hydroxymethyl)indazole-6-yloxy)ethylamino)ethyl)phenyl)cyclobutanesulfonamide] | 72% | 72 nM | 89% | 44 nM | – | – | – | – |
| CCc1n[nH]c2cc(OCCNC[C@H](O)c3cccc(NS(=O)(=O)CC(F)(F)F)c3)ccc12 [ex125, (R)-N-(3-(2-(2-(3-ethylindazol-6-yloxy)ethylamino)-1-hydroxyethyl)phenyl)-2,2,2-trifluoro ? sulfonamide] | 34% | 14 nM | 15% | – | – | – | – | – |
| COc1cccc(S(=O)(=O)Nc2cccc([C@@H](O)CNCCOc3ccc4c(OC)n[nH]c4c3)c2)c1 [ex15, (R)-N-(3-(1-hydroxy-2-(2-(3-methoxyindazol-6-yloxy)ethylamino)ethyl)phenyl)-3-methoxy-b ? sulfonamide] | – | – | – | – | – | 0% | – | – |
